Reference: US6767890B1, “Peptides having anti-cancer and anti-inflammatory activity” (priority 1998, dated 2004)
Values joined by “and” are separate entries in the source; they are usually repeats but may differ in a detail not shown here. Identical values can stand only once.

Assays:
Histamine H3 = target: T1, Histamine H3 (Rattus norvegicus, UniProt Q9QYN8); experiment: Histamine H3 radioligand binding; settings: 10.0 μM; specific binding of [3H]NAMH; negative = stimulation
T1 construct: rat brain; from tissue; host or cells: rat brain
Protocol: (§1) The peptide was further screened in vitro in a variety of enzyme and biochemical assays. Methods employed were adapted from the scientific literature to maximize reliability and reproducibility. The primary literature reference for each assay is listed in Table 11 opposite the results for each assay.
(§2) Results presented in Table 10, “Results,” are the average of duplicate determinations, unless otherwise noted.
(§3) Reference compounds were tested concurrently at 5 concentrations as an integral part of each assay to ensure the validity of the results obtained.
Radioligand binding assays were performed under conditions described in Table 8, “Experimental Conditions.” Radioligands employed in this study are given in Table 8, and commercial sources and catalog numbers of the radioligands are provided in Table 7, “Material Sources.” Unlabeled, blocking ligands employed this study are listed in Table 8, “Experimenal Conditions,” along with the commercial sources and catalog number of the unlabeled ligand. The concurrent reference compound (control) employed in each assay is listed in Table 9, “Reference Compound Data,” along with the commercial supplier and catalog number of the compound. […]
Maximum total binding and nonspecific binding were determined each time each assay was run. […]
Where inhibition constants (Ki) are presented, the Ki values were calculated using the equation of Cheng and Prusoff (Cheng, Y., Prusoff, W. H., Biochem. Pharmacol. […], 1973) using the observed IC50 of the tested compound, the concentration of radioligand employed in the assay, and the historical values for the Kd of the ligand (obtained experimentally). Where presented, the Hill Coefficient (nH), defining the scope of the competitive binding curve, was calculated using GraphPad Prism. […] Where IC50, Ki, and/or Hill Slope data is presented without Standard Error of the Mean (SEM), data are insufficient to be quantitative, and the values presented (Ki, IC50, nH) should be interpreted with caution. […]

[1] = system: Adjuvant Induced Arthritis; experiment: Adjuvant Induced Arthritis Model; assay type: in vivo; settings: rat, 20 mg per KG body weight orally once per day for 14 days, Day 14
Protocol: Adjuvant Induced Arthritis Model: Male Sprague-Dawley rats (160-180 g) were sensitized by injecting Fruend's Complete Adjuvant (0.5% suspension of killed mycobacterium tuberculosis (H37RA, Difco in mineral oil)). 0.05 ml was administered intradermally at a plantar site on the right hind leg of each rat. The test materials were given orally (by gavage) in 0.5% methylcelluose, at a dose level of 20 milligrams per kilo body weight, and given once per day for 14 days. The administration was started the day after sensitization. The left hind paw was measured just before sensitization and on Day 14, and the plantar edema inhibitory rate and the body weight gain rate were determined in comparison with the nonsensitized rat groups. The paw weights for each group in each test run were averaged. Activity was calculated as follows: [formula]
The Anti-inflammatory response is the difference in the mean foot volume. […] FIG. 4.

galanin receptor = experiment: Galanin Agonism/Antagonism, rat ileum; assay type: cell-based; settings: Peptide 30 μM
Protocol: For in vivo assay, distilled water and saline was used as vehicle in oral and intraperitoneal administration, respectively. Dosing volume was 20 ml/kg for mice or 10 ml/kg for rats.
A segment of ileum obtained from Wistar derived male or female rats weighing 275±25 gms and sacrificed by CO2 overexposure was used. The tissue was placed under 1 g tension in a 10 ml bath containing Kreb's solution pH 7.4 at 32° C. Test substance (30 μM)-induced contraction 50 percent or more (≧50%) within 5 minutes, relative to control 0.1 μM galanin response, indicated possible galanin receptor agonist activity. Atha test substance concentration where no significant agonist activity was seen, ability to reduce the galanin-induced contractile response […] or more (≧50%) indicated galanin receptor antagonist activity. Each concentration was tested on two separate preparations.

[2] = system: Protein Kinase C, Non-Select.; experiment: Protein Kinase C, Non-Select. enzyme assay; assay type: biochemical, rat; settings: 300.0 μM; average of duplicate; negative = stimulation
Protocol: as §1, §2, §3
(§4) Enzyme assays were performed under conditions described in Table 8, “Experimental Conditions.”. The commercial suppliers and catalog numbers of substrates employed in this study are given in Table 7, “Material Sources.” The name, commercial source, and catalog numbers of concurrent reference compounds (controls) employed in this study are given in Table 9, “Reference Compound Data.” The reaction catalyzed by each enzyme is listed in Table 8, “Experimental Conditions.”
(§5) Biochemical assay results are presented in Table 10, as the percent inhibition of specific binding or activity, and unless noted are the average of duplicate tubes tested at each concentration.

Cyclooxygenase-2 = target: T2, Cyclooxygenase-2 (Ovis aries, UniProt P79208); experiment: Cyclooxygenase-2 enzyme assay; assay type: biochemical, sheep; settings: 300.0 μM; average of duplicate; negative = stimulation
T2 construct: sheep placenta; from tissue; host or cells: sheep placenta
Protocol: (§6) The peptide was further screened in vitro in a variety of enzyme and biochemical assays. Methods employed were adapted from the scientific literature to maximize reliability and reproducibility.
(§7) Unless otherwise indicated, the peptide was tested in duplicate at the concentrations indicated for each assay. Results presented in Table 10, “Results,” are the average of duplicate determinations, unless otherwise noted.
as §4, §5

Cyclooxygenase-1 = target: T3, Cyclooxygenase-1 (Ovis aries, UniProt P05979); experiment: Cyclooxygenase-1 enzyme assay; assay type: biochemical, ram; settings: 300.0 μM; average of duplicate; negative = stimulation
T3 construct: ram seminal; from tissue; host or cells: ram seminal vesicle
Protocol: as §6, §7, §4, §5

PLA2, Pancreatic = target: T4, PLA2, Pancreatic (Sus scrofa, UniProt P00592); experiment: PLA2, Pancreatic enzyme assay; assay type: biochemical, porcine; settings: 300.0 μM; average of duplicate; negative = stimulation
T4 construct: porcine; from tissue; host or cells: porcine pancreas
Protocol: as §1, §2, §3, §4, §5

Sarcoma 180 tumor = experiment: Anti-Cancer Activity Against Mouse Tumor Sarcoma 180; assay type: in vivo; settings: 10 mg/kg, listed as natural peptide
Protocol: This model has been used extensively as indicative of neovascularization in mammals inasmuch as the tumor so implanted is quickly vascularizing.
Experimental Design: All mice were weighed at test initiation and test termination. The animals were divided into three groups. The Sarcoma 180 tumor was made up from a passage mouse to furnish […] per 0.1 mL inoculum. The cells were injected into the left leg hamstring muscle mass. The was delivered to the mice by I.P. injections, or gavage on days 1-5.
At the termination of the experiments, the mice were weighed and the left rear leg was amputated at the thigh. The skin was removed from the leg to expose the site at which the tumor was located. […].

T2 sequence (P79208 17-603): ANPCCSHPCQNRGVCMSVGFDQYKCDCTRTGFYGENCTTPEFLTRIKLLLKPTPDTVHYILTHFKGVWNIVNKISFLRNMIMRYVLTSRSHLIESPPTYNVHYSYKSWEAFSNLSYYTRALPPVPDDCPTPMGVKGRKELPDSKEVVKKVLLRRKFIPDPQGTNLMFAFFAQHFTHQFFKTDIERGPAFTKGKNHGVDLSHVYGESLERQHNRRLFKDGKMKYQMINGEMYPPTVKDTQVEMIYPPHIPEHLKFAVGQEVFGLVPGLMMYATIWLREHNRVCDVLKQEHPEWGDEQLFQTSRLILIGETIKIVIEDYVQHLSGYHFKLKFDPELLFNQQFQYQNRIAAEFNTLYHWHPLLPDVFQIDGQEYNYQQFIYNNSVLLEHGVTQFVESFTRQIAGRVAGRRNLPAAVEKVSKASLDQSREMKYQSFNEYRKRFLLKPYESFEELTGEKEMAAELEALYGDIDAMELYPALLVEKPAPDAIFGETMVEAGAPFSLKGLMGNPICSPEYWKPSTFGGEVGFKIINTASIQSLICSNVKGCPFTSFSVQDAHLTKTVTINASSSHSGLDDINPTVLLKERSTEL
T3 sequence (P05979 25-600): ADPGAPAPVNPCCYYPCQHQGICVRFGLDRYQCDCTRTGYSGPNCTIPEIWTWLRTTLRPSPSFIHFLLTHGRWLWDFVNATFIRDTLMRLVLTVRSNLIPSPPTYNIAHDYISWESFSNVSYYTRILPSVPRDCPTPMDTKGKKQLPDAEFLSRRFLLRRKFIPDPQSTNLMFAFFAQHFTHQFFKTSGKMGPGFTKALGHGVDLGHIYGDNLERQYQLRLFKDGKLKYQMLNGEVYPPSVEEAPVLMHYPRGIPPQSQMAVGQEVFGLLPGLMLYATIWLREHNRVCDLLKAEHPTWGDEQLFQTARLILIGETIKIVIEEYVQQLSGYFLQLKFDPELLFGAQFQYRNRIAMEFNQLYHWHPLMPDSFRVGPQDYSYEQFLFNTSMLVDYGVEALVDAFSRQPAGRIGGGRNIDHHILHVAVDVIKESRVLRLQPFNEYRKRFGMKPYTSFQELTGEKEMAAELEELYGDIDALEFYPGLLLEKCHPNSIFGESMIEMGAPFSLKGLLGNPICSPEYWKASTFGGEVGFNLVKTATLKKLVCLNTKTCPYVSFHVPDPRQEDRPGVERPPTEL
T4 sequence (P00592 23-146): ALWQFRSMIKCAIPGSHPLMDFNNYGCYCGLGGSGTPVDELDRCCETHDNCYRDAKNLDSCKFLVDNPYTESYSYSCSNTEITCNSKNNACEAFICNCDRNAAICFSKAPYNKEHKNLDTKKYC
T1 sequence (Q9QYN8 whole entry): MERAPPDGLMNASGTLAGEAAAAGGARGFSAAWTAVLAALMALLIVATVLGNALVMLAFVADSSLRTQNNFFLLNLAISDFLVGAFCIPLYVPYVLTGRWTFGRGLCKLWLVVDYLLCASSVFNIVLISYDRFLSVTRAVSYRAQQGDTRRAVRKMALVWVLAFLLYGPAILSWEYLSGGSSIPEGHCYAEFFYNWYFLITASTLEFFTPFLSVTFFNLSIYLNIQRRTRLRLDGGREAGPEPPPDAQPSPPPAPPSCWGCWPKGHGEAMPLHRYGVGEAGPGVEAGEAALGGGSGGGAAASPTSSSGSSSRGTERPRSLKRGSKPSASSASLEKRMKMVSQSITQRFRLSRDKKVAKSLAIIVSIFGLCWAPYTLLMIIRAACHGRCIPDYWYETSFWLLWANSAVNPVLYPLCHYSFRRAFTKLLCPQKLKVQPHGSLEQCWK

LEU-PRO-PRO-SER-ARG [Peptide]
% Inhibition (Histamine H3): −13%
anti-inflammatory response (percent inhibition) [1]: 116.3%
Antagonism, Ave. (galanin receptor; average of two preparations): 12%
Agonism, Ave. (galanin receptor; average of two preparations, Galanin 0.1 μM): 0%
Agonism (galanin receptor; individual preparation, contraction within 5 minutes relative to 0.1 μM galanin response, Galanin 0.1 μM): 0%
Antagonism (galanin receptor; individual preparation, reduction of 0.1 μM galanin-induced contractile response): 24% and 0%
% Inhibition [2]: −6%
% Inhibition (Cyclooxygenase-2): 2%
% Inhibition (Cyclooxygenase-1): 2%
% Inhibition (PLA2, Pancreatic): −11%
% tumor inhibition (Sarcoma 180 tumor; I.P. injections or gavage on days 1-5, 6 mice): 99.0%
Mean tumor wt. gain, gm (Sarcoma 180 tumor; net tumor weight, I.P. injections or gavage on days 1-5, 6 mice): 0.03 gm
